US9938543B2, “Methods, reagents and cells for biosynthesizing glutarate methyl ester” (priority 2014, dated 2018)

Key:
Type in all cases: biochemical
[1] = target: T1, pimeloyl-[acp] methyl ester methylesterase of SEQ ID NO: 1 (Escherichia coli, UniProt P13001); assay: Pimeloyl-[acp] methyl ester methylesterase enzyme activity assay, glutaryl-CoA methyl ester to glutaryl-CoA (LC-MS); settings: 5 mM glutaryl-CoA methyl ester, 10 μM enzyme, 25 mM Tris.HCl pH 7.0, 30° C., 1 h
T1 construct: His-tag (C); made in house; host or cells: E. coli BL21[DE3], pET28b+ vector
T1 sequence (P13001 whole entry): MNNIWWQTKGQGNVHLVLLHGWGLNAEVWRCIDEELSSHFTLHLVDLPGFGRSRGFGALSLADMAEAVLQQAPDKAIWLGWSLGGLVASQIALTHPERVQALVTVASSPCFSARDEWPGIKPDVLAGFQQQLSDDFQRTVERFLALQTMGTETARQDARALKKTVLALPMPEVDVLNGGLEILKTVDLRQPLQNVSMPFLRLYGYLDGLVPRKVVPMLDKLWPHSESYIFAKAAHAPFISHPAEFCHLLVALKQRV
Protocol: A sequence encoding an C-terminal His-tag was added to the gene from Escherichia coli encoding the pimeloyl-[acp] methyl ester methylesterase of SEQ ID NO: 1 (see FIG. 8) such that C-terminal HIS tagged pimeloyl-[acp] methyl ester methylesterase could be produced. The resulting modified gene was cloned into a pET28b+ expression vector under control of the T7 promoter and the expression vector was transformed into a BL21[DE3] E. coli host. The resulting recombinant E. coli strain was cultivated at 37° C. in a 500 mL shake flask culture containing 100 mL LB media and antibiotic selection pressure, with shaking at 230 rpm. Each culture was induced overnight at 18° C. using 0.3 mM IPTG.
The pellet from each induced shake flask culture was harvested via centrifugation. Each pellet was resuspended and lysed via sonication. The cell debris was separated from the supernatant via centrifugation. The pimeloyl-[acp] methyl ester methylesterase was purified from the supernatant using Ni-affinity chromatography, buffer exchanged and concentrated into 20 mM HEPES buffer (pH=7.5) via ultrafiltration and stored at 4° C.
Enzyme activity assays converting glutaryl-CoA methyl ester to glutaryl-CoA were performed in triplicate in a buffer composed of a final concentration of 25 mM Tris.HCl buffer (pH=7.0) and 5 [mM] glutaryl-CoA methyl ester. […] The formation of glutaryl-CoA was quantified via LC-MS.

[2] = test system: carboxylate reductase of SEQ ID NO: 3 (Mycobacterium smegmatis); assay: Carboxylate reductase enzyme activity assay, glutarate methyl ester as substrate (NADPH consumption at 340 nm); settings: 2 mM glutarate methyl ester, 1 mM NADPH, 1 mM ATP, pH 7.5, room temperature 20 min; enhanced by gene product of sfp; against empty vector control
Protocol: (§1) A nucleotide sequence encoding a His-tag was added to the genes from Mycobacterium marinum, Mycobacterium smegmatis, Segniliparus rugosus, Mycobacterium massiliense, and Segniliparus rotundus that encode the carboxylate reductases of SEQ ID NOs: 2-4, 6 and 7, respectively (GenBank Accession Nos. ACC40567.1, ABK71854.1, EFV11917.1, EIV11143.1, and ADG98140.1, respectively) (see FIG. 8) such that N-terminal HIS tagged carboxylate reductases could be produced. Each of the modified genes was cloned into a pET Duet expression vector alongside a sfp gene encoding a His-tagged phosphopantetheine transferase from Bacillus subtilis, both under control of the T7 promoter. Each expression vector was transformed into a BL21[DE3] E. coli host along with the expression vectors from Example 2. Each resulting recombinant E. coli strain was cultivated at 37° C. in a 250 mL shake flask culture containing 50 mL LB media and antibiotic selection pressure, with shaking at 230 rpm. Each culture was induced overnight at 37° C. using an auto-induction media.
(§2) The pellet from each induced shake flask culture was harvested via centrifugation. Each pellet was resuspended and lysed via sonication. The cell debris was separated from the supernatant via centrifugation. The carboxylate reductases and phosphopantetheine transferase were purified from the supernatant using Ni-affinity chromatography, diluted 10-fold into 50 mM HEPES buffer (pH=7.5) and concentrated via ultrafiltration.
(§3) The enzyme activity assay was performed in triplicate in a buffer composed of a final concentration of 50 mM HEPES buffer (pH=7.5), 2 mM glutarate methyl ester, 10 mM MgCl2, 1 mM ATP and 1 mM NADPH. The enzyme activity assay reaction was initiated by adding purified carboxylate reductase and phosphopantetheine transferase or the empty vector control to the assay buffer containing the glutarate methyl ester and then incubated at room temperature for 20 min. The consumption of NADPH was monitored by absorbance at 340 nm.

[3] = test system: carboxylate reductase of SEQ ID NO: 6 (Mycobacterium massiliense); assay: as above; settings: 2 mM glutarate methyl ester, 1 mM NADPH, 1 mM ATP, pH 7.5, room temperature 20 min; enhanced by gene product of sfp; against empty vector control
Protocol: as §1, §2, §3

[4] = target: T2, carboxylate reductase of SEQ ID NO: 2 (Mycobacterium marinum) (Mycobacterium marinum, UniProt B2HN69); assay: as above; settings: 2 mM glutarate methyl ester, 1 mM NADPH, 1 mM ATP, pH 7.5, room temperature 20 min; enhanced by gene product of sfp; against empty vector control
T2 construct: His-tag (N); made in house; host or cells: E. coli BL21[DE3], pET Duet vector
T2 sequence (B2HN69 whole entry): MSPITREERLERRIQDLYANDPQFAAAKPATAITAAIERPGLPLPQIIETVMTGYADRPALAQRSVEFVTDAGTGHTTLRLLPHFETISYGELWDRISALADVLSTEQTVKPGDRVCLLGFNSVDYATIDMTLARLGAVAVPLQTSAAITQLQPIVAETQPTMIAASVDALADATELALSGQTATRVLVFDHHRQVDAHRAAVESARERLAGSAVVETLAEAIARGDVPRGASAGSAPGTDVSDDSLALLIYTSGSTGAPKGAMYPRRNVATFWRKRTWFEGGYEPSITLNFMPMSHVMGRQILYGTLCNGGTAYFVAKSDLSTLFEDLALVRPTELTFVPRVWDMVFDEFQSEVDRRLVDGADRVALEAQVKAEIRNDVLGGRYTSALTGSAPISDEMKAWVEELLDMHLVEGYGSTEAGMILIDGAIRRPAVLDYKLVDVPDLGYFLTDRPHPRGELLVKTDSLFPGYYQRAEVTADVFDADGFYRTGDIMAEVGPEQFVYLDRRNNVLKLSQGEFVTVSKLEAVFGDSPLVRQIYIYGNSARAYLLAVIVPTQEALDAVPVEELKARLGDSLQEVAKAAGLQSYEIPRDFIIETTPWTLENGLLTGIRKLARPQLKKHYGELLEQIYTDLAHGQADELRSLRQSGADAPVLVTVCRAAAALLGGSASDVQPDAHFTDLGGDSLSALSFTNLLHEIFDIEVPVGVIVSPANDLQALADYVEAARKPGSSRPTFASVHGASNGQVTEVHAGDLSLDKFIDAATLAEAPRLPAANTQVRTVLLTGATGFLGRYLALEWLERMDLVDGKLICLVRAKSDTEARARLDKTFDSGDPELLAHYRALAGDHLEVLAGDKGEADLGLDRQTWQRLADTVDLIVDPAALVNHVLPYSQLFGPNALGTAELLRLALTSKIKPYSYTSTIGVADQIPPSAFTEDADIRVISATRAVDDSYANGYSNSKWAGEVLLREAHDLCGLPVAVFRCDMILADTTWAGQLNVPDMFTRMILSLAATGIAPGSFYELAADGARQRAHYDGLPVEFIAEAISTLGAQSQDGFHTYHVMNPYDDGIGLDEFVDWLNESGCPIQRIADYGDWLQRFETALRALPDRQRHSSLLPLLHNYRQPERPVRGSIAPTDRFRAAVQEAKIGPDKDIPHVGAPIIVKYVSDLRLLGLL
Protocol: as §1, §2, §3

[5] = test system: carboxylate reductase of SEQ ID NO: 7 (Segniliparus rotundus); assay: as above; settings: 2 mM glutarate methyl ester, 1 mM NADPH, 1 mM ATP, pH 7.5, room temperature 20 min; enhanced by gene product of sfp; against empty vector control
Protocol: as §1, §2, §3

With `COC(=O)CCCC(=O)SCCNC(=O)CCNC(=O)C(O)C(C)(C)COP(=O)(O)OP(=O)(O)OCC1OC(n2cnc3c(N)ncnc32)C(O)C1OP(=O)(O)O` (centres unmarked) [glutaryl-CoA methyl ester] as the molecule, how does the “acceptance as substrate, forming glutaryl-CoA” value [1] read?
The value was “accepted glutaryl-CoA methyl ester as substrate”.

Which results are given for `COC(=O)CCCC(=O)O` [glutarate methyl ester]?
acceptance as substrate, forming glutarate semialdehyde methyl ester [2]: accepted glutarate methyl ester as substrate; acceptance as substrate, forming glutarate semialdehyde methyl ester [3]: accepted glutarate methyl ester as substrate; acceptance as substrate, forming glutarate semialdehyde methyl ester [4]: accepted glutarate methyl ester as substrate; acceptance as substrate, forming glutarate semialdehyde methyl ester [5]: accepted glutarate methyl ester as substrate
